Article PMC4138103 (PLoS ONE, 2014)
Read-outs that look alike come from different tables or passages of the source.

Test system: Sprague-Dawley rats
Test: Serum steroids and gonadotropins
Type: in vivo, Rattus norvegicus
Settings: for CED, Serum FSH / CED, Serum LH / CED-L, Serum FSH / CED-L, Serum LH: adipose tissue concentration based; for Emax: Rattus norvegicus; for Estradiol / LH / Progesterone / FSH / Testosterone: group mean; for Serum FSH, CED / Serum FSH, CED-L / Serum LH, CED / Serum LH, CED-L: total dose based
Method: Serum testosterone, estradiol and progesterone concentrations were measured by time-resolved immunofluorometric assay, DELFIA (PerkinElmer Life and Analytical Sciences, Turku, Finland) after diethyl ether (Merck KGaA, Darmstadt, Germany) extraction. Ether-extracted serum samples were reconstituted to DELFIA Diluent II buffer (PerkinElmer Life and Analytical Sciences, Turku, Finland) and used for analysis. The sensitivity of the assay was 100 pg/ml for testosterone, 13.6 pg/ml for estradiol and 250 pg/ml for progesterone. The intra- and interassay coefficients of variation (CV) were below 6 and 12%, respectively. To enhance the sensitivity, commercial tracer and antiserum were additionally diluted 5∶8 with assay buffer (PerkinElmer Life and Analytical Sciences, Turku, Finland) in testosterone assay. For estradiol and progesterone, dilution rate was 1∶2. Serum follicle stimulating hormone (FSH) and luteinizing hormone (LH) levels were determined from unextracted samples by DELFIA as described previously, [31].
Data were also analyzed using the BMD method, which is based on dose-response modeling of the full data set using a nested family of exponential and Hill models. The analyses were done on data of males and females combined, using sex as a covariate. […] In that case, different Critical Effect Doses (CEDs) and CEDs at the lowest bound of the confidence interval (CED-L) were generated for each sex. If no difference between sexes is detected, a CED and CED-Ls for the combined data is generated. However, this was also done if the curve fits are close, and separate analyses for males and females were then performed manually. CEDs and CED-Ls were calculated at the predefined Critical Effect Size (CES) of 5% (EFSA standard) or 10%.

[1] = females, total dose 10 mg/kg bw
[2] = females, total dose 30 mg/kg bw
[3] = females, total dose 100 mg/kg bw
[4] = females, total dose 300 mg/kg bw
[5] = females, total dose 1000 mg/kg bw
[6] = females, total dose 1700 mg/kg bw
[7] = males, total dose 1000 mg/kg bw
[8] = males, total dose 1700 mg/kg bw

Clc1cc(Cl)c(-c2cc(Cl)c(Cl)c(Cl)c2Cl)cc1Cl [PCB 180, 2,2′,3′,4,4′,5,5′-heptachlorobiphenyl]
CED, Serum FSH (M, CES 5%, model E2): 1600 µg/g lipid | CED, Serum LH (M, CES 5%, model E2): 1160 µg/g lipid | CED-L, Serum FSH (M, CES 5%, model E2): 1116 µg/g lipid | CED-L, Serum LH (M, CES 5%, model E2): 648 µg/g lipid | CED, Serum FSH (M, CES 10%, model E2): 3290 µg/g lipid | CED, Serum LH (M, CES 10%, model E2): 2390 µg/g lipid | CED-L, Serum FSH (M, CES 10%, model E2): 2292 µg/g lipid | CED-L, Serum LH (M, CES 10%, model E2): 1331 µg/g lipid | Emax (males, controls vs high dose, fitted model, read-out: Serum FSH, Maximum response): -20.6% | Emax (males, controls vs high dose, fitted model, read-out: Serum LH, Maximum response): -27.9% | Emax (M, model E2, controls vs high dose according to the fitted model, read-out: Maximum response, Serum FSH): -21.1% | Emax (M, model E2, controls vs high dose according to the fitted model, read-out: Maximum response, Serum LH): -27.8% | Estradiol (females, total dose 3 mg/kg bw): 20.2 pg/mL | LH (females, total dose 3 mg/kg bw): 1.51 ng/mL | Progesterone (females, total dose 3 mg/kg bw): 37.1 ng/mL | Estradiol [1]: 23.6 pg/mL | LH [1]: 2.57 ng/mL | Progesterone [1]: 18.0 ng/mL | Estradiol [2]: 18.8 pg/mL | LH [2]: 1.81 ng/mL | Progesterone [2]: 22.3 ng/mL | Estradiol [3]: 21.4 pg/mL | LH [3]: 1.96 ng/mL | Progesterone [3]: 33.0 ng/mL | Estradiol [4]: 15.4 pg/mL | LH [4]: 2.02 ng/mL | Progesterone [4]: 27.5 ng/mL | Estradiol [5]: 17.4 pg/mL | LH [5]: 1.39 ng/mL | Progesterone [5]: 27.7 ng/mL | Estradiol [6]: 17.6 pg/mL | LH [6]: 1.77 ng/mL | Progesterone [6]: 22.7 ng/mL | FSH, Dose response (males): D, T | LH, Dose response (males): D, T | Serum FSH, CED (males, CES 5%): 377 mg/kg bw | Serum FSH, CED-L (males, CES 5%): 263 mg/kg bw | Serum LH, CED (males, CES 5%): 266 mg/kg bw | Serum LH, CED-L (males, CES 5%): 150 mg/kg bw | Serum FSH, CED (males, CES 10%): 775 mg/kg bw | Serum FSH, CED-L (males, CES 10%): 540 mg/kg bw | Serum LH, CED (males, CES 10%): 547 mg/kg bw | Serum LH, CED-L (males, CES 10%): 309 mg/kg bw | FSH (males, total dose 3 mg/kg bw): 8.23 ng/mL | LH (males, total dose 3 mg/kg bw): 1.23 ng/mL | Testosterone (males, total dose 3 mg/kg bw): 2.35 ng/mL | FSH (males, total dose 10 mg/kg bw): 8.54 ng/mL | LH (males, total dose 10 mg/kg bw): 0.91 ng/mL | Testosterone (males, total dose 10 mg/kg bw): 2.66 ng/mL | FSH (males, total dose 30 mg/kg bw): 7.44 ng/mL | LH (males, total dose 30 mg/kg bw): 0.99 ng/mL | Testosterone (males, total dose 30 mg/kg bw): 1.92 ng/mL | FSH (males, total dose 100 mg/kg bw): 7.88 ng/mL | LH (males, total dose 100 mg/kg bw): 0.84 ng/mL | Testosterone (males, total dose 100 mg/kg bw): 3.21 ng/mL | FSH (males, total dose 300 mg/kg bw): 7.66 ng/mL | LH (males, total dose 300 mg/kg bw): 1.03 ng/mL | Testosterone (males, total dose 300 mg/kg bw): 2.04 ng/mL | FSH [7]: 7.49 ng/mL | LH [7]: 0.77 ng/mL | Testosterone [7]: 2.18 ng/mL | FSH [8]: 6.49 ng/mL | LH [8]: 0.75 ng/mL | Testosterone [8]: 1.85 ng/mL
